The values that follow come from US20240366770A1, “DEGRADATION OF BRUTON'S TYROSINE KINASE (BTK) BY CONJUGATION OF BTK INHIBITORS WITH E3 LIGASE LIGAND AND METHODS OF USE” (BeiGene Switzerland GmbH, priority 2021, published 2024).

Each structure is given as a SMILES string.

As usually defined, the DC50 is the concentration giving 50% degradation.

One test has as its system HEK-293 cells. The test is described as follows: HEK-293 cytotoxicity detection (CellTiter-Glo). It counts as cell-based. The settings on record: Homo sapiens; HEK-293 cells, 72 h incubation, CellTiter-Glo luminescence, IC50 of cell proliferation inhibition; read-out: HEK293. The method, boiled down:
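HEK-293 cells exposed 72 h to an 8-point, 4-fold dilution series (top 500× stock 5 mM in DMSO; 0.2% DMSO final). Viability by CellTiter-Glo luminescence after 10 min at room temperature; IC50 from four-parameter Hill fit of percent inhibition.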
In general terms: Cellular ATP, detected with luciferase, serves as a proxy for viable cell number.

The target of a further test is T1, BTK (Homo sapiens, UniProt Q06187).
T1 construct: High control=Cell group with added DMSO and without compound, indicating microplate readings without BTK degradation; endogenous in cells; host or cells: TMD-8
T1 sequence (Q06187 whole entry): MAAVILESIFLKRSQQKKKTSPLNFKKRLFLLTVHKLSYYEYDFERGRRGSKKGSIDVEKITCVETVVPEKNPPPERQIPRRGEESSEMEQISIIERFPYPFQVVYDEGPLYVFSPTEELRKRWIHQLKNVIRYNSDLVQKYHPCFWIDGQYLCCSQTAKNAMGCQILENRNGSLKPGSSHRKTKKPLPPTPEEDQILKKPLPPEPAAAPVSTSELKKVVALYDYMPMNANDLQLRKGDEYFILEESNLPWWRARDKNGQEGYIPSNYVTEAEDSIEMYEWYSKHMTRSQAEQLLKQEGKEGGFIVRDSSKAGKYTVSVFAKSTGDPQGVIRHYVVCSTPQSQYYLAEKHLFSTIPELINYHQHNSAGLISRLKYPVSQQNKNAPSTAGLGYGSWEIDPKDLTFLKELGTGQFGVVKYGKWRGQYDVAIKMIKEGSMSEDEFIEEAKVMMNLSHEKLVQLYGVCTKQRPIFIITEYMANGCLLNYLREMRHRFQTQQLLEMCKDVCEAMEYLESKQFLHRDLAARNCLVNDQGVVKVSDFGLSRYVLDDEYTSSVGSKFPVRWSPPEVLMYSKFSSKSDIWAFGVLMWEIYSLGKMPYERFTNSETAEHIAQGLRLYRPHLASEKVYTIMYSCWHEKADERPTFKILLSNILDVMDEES
Kind of test: BTK degradation in TMD-8 cells (HTRF assay). It is filed as cell-based. Particulars: 6 h treatment, IC50 (DC50) of BTK degradation. The method, boiled down:
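TMD-8 cells were exposed for 6 h to 8 compound doses (6-fold serial dilution, 0.2% DMSO). Lysed cells were incubated overnight at room temperature with HTRF antibodies and read at 665/620 nm. DC50 came from four-parameter fitting of % inhibition versus concentration.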
(In general: In TR-FRET formats the signal depends on donor and acceptor labels being close together.)

Consider `COc1cc2c(cc1N1CCN(CC3CCN(c4ccc(N5CCC(=O)NC5=O)cc4)CC3)CC1)[nH]c1ncnc(-c3ccc([C@@H](C)NC(=O)c4nc(C5(C)CC5)no4)c(C)c3)c12` [Example 52, (R)—N-(1-(4-(7-(4-((1-(4-(2,4-dioxotetrahydropyrimidin-1(2H)-yl)phenyl)piperidin-4-yl)methyl)piperazin-1-yl)-6-methoxy-9H-pyrimido[4,5-b]indol-4-yl)-2-methylphenyl)ethyl)-3-(1-methylcyclopropyl)-1,2,4-oxadiazole-5-carboxamide], for which the IC50 in the test with HEK-293 cells was over 10000 nM. In addition, the DC50 on BTK turned out to be 0.361 nM.
For `Cc1cc(-c2ncnc3[nH]c4cc(C5CCN(C6CC(c7ccc(C8CCC(=O)NC8=O)cc7)C6)CC5)ncc4c23)ccc1[C@@H](C)NC(=O)c1nc(C(C)(C)C)no1` (stereo partly drawn) [Example 41, 3-(tert-butyl)-N-((1R)-1-(4-(7-(1-(3-(4-(2,6-dioxopiperidin-3-yl)phenyl)cyclobutyl)piperidin-4-yl)-9H-pyrido[3′,4′:4,5]pyrrolo[2,3-d]pyrimidin-4-yl)-2-methylphenyl)ethyl)-1,2,4-oxadiazole-5-carboxamide], in that order: 3350 nM and 1.85 nM.
For `Cc1cc(-c2ncnc3[nH]c4cc(N5CCN(CCc6ccc(N7CCC(=O)NC7=O)cn6)CC5)ccc4c23)ccc1[C@@H](C)NC(=O)c1nc(C(C)(C)C)no1` [Example 19, (R)-3-(tert-butyl)-N-(1-(4-(7-(4-(2-(5-(2,4-dioxotetrahydropyrimidin-1(2H)-yl)pyridin-2-yl)ethyl)piperazin-1-yl)-9H-pyrimido[4,5-b]indol-4-yl)-2-methylphenyl)ethyl)-1,2,4-oxadiazole-5-carboxamide], in that order: 5650 nM and 0.564 nM.
For `Cc1cc2c(cc1N1CCN(CC3CCN(c4ccc(N5CCC(=O)NC5=O)cc4)CC3)CC1)[nH]c1ncnc(-c3ccc([C@@H](C)NC(=O)c4noc(C(C)(C)C)n4)c(C)c3F)c12` [Example 45, (R)-5-(tert-butyl)-N-(1-(4-(7-(4-((1-(4-(2,4-dioxotetrahydropyrimidin-1(2H)-yl)phenyl)piperidin-4-yl)methyl)piperazin-1-yl)-6-methyl-9H-pyrimido[4,5-b]indol-4-yl)-3-fluoro-2-methylphenyl)ethyl)-1,2,4-oxadiazole-3-carboxamide], in that order: over 10000 nM and 1.05 nM.
Consider `Cc1c([C@@H](C)NC(=O)c2nc(C3(C)CC3)no2)ccc(-c2ncnc3[nH]c4cc(N5CCN(CC6CCN(c7ccc(N8CCC(=O)NC8=O)cc7)CC6)CC5)ccc4c23)c1F` [Example 64, (R)—N-(1-(4-(7-(4-((1-(4-(2,4-dioxotetrahydropyrimidin-1(2H)-yl)phenyl)piperidin-4-yl)methyl)piperazin-1-yl)-9H-pyrimido[4,5-b]indol-4-yl)-3-fluoro-2-methylphenyl)ethyl)-3-(1-methylcyclopropyl)-1,2,4-oxadiazole-5-carboxamide], for which, in the test with HEK-293 cells, the IC50 is over 10000 nM. This compound yielded a DC50 on BTK of 3.02 nM.
For `Cc1cc(-c2ncnc3[nH]c4cc(C5CCN(CC6CCN(c7ccc(N8CCC(=O)NC8=O)cc7)CC6)CC5)ccc4c23)ccc1[C@@H](C)NC(=O)c1nc(C(C)(C)C)no1` [Example 5, (R)-3-(tert-butyl)-N-(1-(4-(7-(1-((1-(4-(2,4-dioxotetrahydropyrimidin-1(2H)-yl)phenyl)piperidin-4-yl)methyl)piperidin-4-yl)-9H-pyrimido[4,5-b]indol-4-yl)-2-methylphenyl)ethyl)-1,2,4-oxadiazole-5-carboxamide], in that order: 3250 nM and 0.731 nM.
Taken in the same sequence, the figures for `Cc1cc(-c2ncnc3[nH]c4cc(N5CCC6(CC5)CCN([C@H]5C[C@H](c7ccc([C@H]8CCC(=O)NC8=O)cc7)C5)CC6)ccc4c23)ccc1[C@@H](C)NC(=O)c1nc(C(C)(C)C)no1` [Example 112, 3-(tert-butyl)-N—((R)-1-(4-(7-(9-((1R,3r)-3-(4-((R)-2,6-dioxopiperidin-3-yl)phenyl)cyclobutyl)-3,9-diazaspiro[5.5]undecan-3-yl)-9H-pyrimido[4,5-b]indol-4-yl)-2-methylphenyl)ethyl)-1,2,4-oxadiazole-5-carboxamide] were 1890 nM and 2.47 nM.
Consider `COc1cc2c(cc1N1CCN(C3CC(c4ccc([C@@H]5CCC(=O)NC5=O)cc4)C3)CC1)[nH]c1ncnc(-c3ccc([C@@H](C)NC(=O)c4nc(C(C)(C)C)no4)c(C)c3F)c12` (stereo partly drawn) [Example 55, 3-(tert-butyl)-N—((R)-1-(4-(7-(4-(3-(4-((S)-2,6-dioxopiperidin-3-yl)phenyl)cyclobutyl)piperazin-1-yl)-6-methoxy-9H-pyrimido[4,5-b]indol-4-yl)-3-fluoro-2-methylphenyl)ethyl)-1,2,4-oxadiazole-5-carboxamide], for which the IC50 in the test with HEK-293 cells is over 10000 nM. This compound registered a DC50 at BTK of 6.97 nM.
As for `Cc1cc(-c2ncnc3[nH]c4cc(N5CCN(CC6CCN(c7ccc(N8CCC(=O)NC8=O)cn7)CC6)CC5)ccc4c23)ccc1[C@@H](C)NC(=O)c1nc(C(C)(C)C)no1` [Example 7, (R)-3-(tert-butyl)-N-(1-(4-(7-(4-((1-(5-(2,4-dioxotetrahydropyrimidin-1(2H)-yl)pyridin-2-yl)piperidin-4-yl)methyl)piperazin-1-yl)-9H-pyrimido[4,5-b]indol-4-yl)-2-methylphenyl)ethyl)-1,2,4-oxadiazole-5-carboxamide], the IC50 with HEK-293 cells was over 10000 nM. The compound further had a DC50 at BTK of 1.27 nM.
Taken in the same sequence, the figures for `CC(C)(C)c1noc(C(=O)N[C@@H]2CCc3cc(-c4ncnc5[nH]c6cc(N7CCN(CC8CCN(c9ccc(N%10CCC(=O)NC%10=O)cc9)CC8)CC7)ccc6c45)ccc32)n1` [Example 37, (R)-3-(tert-butyl)-N-(5-(7-(4-((1-(4-(2,4-dioxotetrahydropyrimidin-1(2H)-yl)phenyl)piperidin-4-yl)methyl)piperazin-1-yl)-9H-pyrimido[4,5-b]indol-4-yl)-2,3-dihydro-1H-inden-1-yl)-1,2,4-oxadiazole-5-carboxamide] were over 10000 nM and 57.6 nM.
For `Cc1cc(-c2ncnc3[nH]c4cc(C5CCN(CC6CCN(c7ccc(N8CCC(=O)NC8=O)cc7)CC6)CC5)ncc4c23)ccc1[C@@H](C)NC(=O)c1nc(C(C)(C)C)no1` [Example 42, (R)-3-(tert-butyl)-N-(1-(4-(7-(1-((1-(4-(2,4-dioxotetrahydropyrimidin-1(2H)-yl)phenyl)piperidin-4-yl)methyl)piperidin-4-yl)-9H-pyrido[3′,4′:4,5]pyrrolo[2,3-d]pyrimidin-4-yl)-2-methylphenyl)ethyl)-1,2,4-oxadiazole-5-carboxamide], in that order: 6730 nM and 1.29 nM.
For the compound `Cc1cc(-c2ncnc3[nH]c4cc(N5CCN([C@H]6C[C@H](c7ccc(N[C@H]8CCC(=O)NC8=O)cc7)C6)CC5)ccc4c23)ccc1[C@@H](C)NC(=O)c1nc(C2(C)CC2)no1` [Example 119, N—((R)-1-(4-(7-(4-((1S,3r)-3-(4-(((S)-2,6-dioxopiperidin-3-yl)amino)phenyl)cyclobutyl)piperazin-1-yl)-9H-pyrimido[4,5-b]indol-4-yl)-2-methylphenyl)ethyl)-3-(1-methylcyclopropyl)-1,2,4-oxadiazole-5-carboxamide], the IC50 with HEK-293 cells is over 10000 nM. Besides, it took 2.51 nM to reach half-maximal degradation at BTK (DC50).
